Assay results as given in article PMC12676205, “New Se‐Compounds With Antileishmanial, Antitumor, and Carbonic Anhydrase Inhibitory Properties” (Archiv Der Pharmazie, 2025).
Where two headings read alike, the source gives them in different places.

Tests used:
L. major promastigotes [1] = tested on: L. major promastigotes; set-up: method as in PMID 37570815, PMID 36364304; conditions: reference drugs; cited from earlier work
THP‐1 cells = tested on: THP‐1 cells; set-up: method as in PMID 37570815, PMID 36364304; conditions: reference drugs; cited from earlier work
[2] = tested on: L. infantum promastigotes; set-up: method as in PMID 37570815, PMID 36364304; conditions: reference drugs; cited from earlier work
Leukemia subpanel [3] = assay: NCI-60 five-dose assay, leukemia subpanel; assay type: cell-based; conditions: Homo sapiens, 48 h
Experimental: (§1) All the compounds were selected for further testing since they fulfilled the set NCI one‐dose screening parameters for threshold inhibition. They were tested at five different concentrations (0.01, 0.1, 1, 10, and 100 μM) for 48 h against the same cell line panel and the dose–response curves along with three response parameters (50% growth inhibitory concentration [GI50], the 50% lethal concentration [LC50], and the total growth inhibition [TGI]) were calculated for every cancer cell line. The full reported data and corresponding graphs are compiled in Supporting Information S1. Average values of GI50, TGI, and LC50 values of all the reported selenoesters in all the subpanels are represented in Figure 4.
(§2) All the reported selenoesters (1–6) were submitted to the DTP of NCI. First, they were screened at a single dose (10^−5 M) against a panel of 60 cancer cell lines derived from different tumor types following the methodology available (https://dtp.cancer.gov/discovery_development/nci-60/methodology.htm). As all the compounds satisfied the threshold inhibition criteria established, they were further assessed at five concentrations (0.01, 0.1, 1, 10, and 100 µM) against the same cell panel to obtain their corresponding dose–response curves and three antitumor parameters (GI50, TGI, and LC50) by regression. GraphPad Prism 7.0 Software was used to represent the corresponding graphs.

Renal subpanel [4] = assay: NCI-60 five-dose assay, renal subpanel; assay type: cell-based; conditions: Homo sapiens, 48 h, read-out: Mean GI50 Renal
Experimental: as §1, §2

Colon subpanel [5] = assay: NCI-60 five-dose assay, colon subpanel; assay type: cell-based; conditions: Homo sapiens, 48 h
Experimental: as §1, §2

hCA XII = target: T1, hCA XII (Homo sapiens, UniProt O43570); assay: hCA XII inhibition, stopped-flow CO2 hydration assay; assay type: biochemical; conditions: stopped flow technique, mean from three assays
T1 construct: made in house
T1 sequence (O43570 25-354): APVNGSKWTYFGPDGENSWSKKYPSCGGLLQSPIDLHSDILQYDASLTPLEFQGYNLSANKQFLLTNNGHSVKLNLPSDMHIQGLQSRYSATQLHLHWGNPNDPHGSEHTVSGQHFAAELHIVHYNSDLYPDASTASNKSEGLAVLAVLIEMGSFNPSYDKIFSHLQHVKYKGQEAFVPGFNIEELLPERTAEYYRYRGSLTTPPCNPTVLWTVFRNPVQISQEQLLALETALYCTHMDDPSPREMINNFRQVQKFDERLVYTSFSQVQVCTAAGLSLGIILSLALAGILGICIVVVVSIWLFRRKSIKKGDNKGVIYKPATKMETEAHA
Experimental: (§7) An Applied Photophysics stopped‐flow instrument was used to assay the CA‐catalyzed CO2 hydration activity [52]. […] The uncatalyzed rates were determined in the same manner and subtracted from the total observed rates. Stock solutions of the inhibitor (0.1 mM) were prepared in distilled–deionized water, and dilutions up to 0.01 nM were done thereafter with the assay buffer. Inhibitor and enzyme solutions were preincubated together for 15 min at room temperature before the assay, to allow for the formation of the E–I complex. The inhibition constants were obtained by Nonlinear least‐squares methods using PRISM 3 and the Cheng‐Prusoff equation as reported earlier and represent the mean from at least three different determinations. All CA isoforms were recombinant proteins obtained in‐house, as reported earlier [54, 55, 56].

Leukemia subpanel [6] = assay: NCI-60 one-dose screen, leukemia subpanel; assay type: cell-based, human; conditions: 10 µM, 48 h
Experimental: (§3) To explore the potential antiproliferative properties of the newly synthesized derivatives, they were submitted to the National Cancer Institute's (NCI) Developmental Therapeutics Program (DTP) for screening at 10 μM in a panel of approximately 60 human cancer cell lines from different cancer types. The results are reported as the growth percentage (GP), which is the growth of the treated cells with each compound for 48 h compared to the untreated controls (Figure 2). […] The initial screening results are summarized in Figure 2, and the mean GP values of each subpanel are depicted in Figure 3. The full reports are compiled in the Supplementary Section.
as §2

Prostate subpanel [7] = assay: NCI-60 five-dose assay, prostate subpanel; assay type: cell-based, human; conditions: Homo sapiens, 48 h
Experimental: as §1, §2

hCA II = target: T2, hCA II (Homo sapiens, UniProt P00918); assay: hCA II inhibition, stopped-flow CO2 hydration assay; assay type: biochemical; conditions: stopped flow technique, mean from three assays
T2 construct: made in house
Experimental: as §7

Breast subpanel [8] = assay: NCI-60 five-dose assay, breast subpanel; assay type: cell-based; conditions: Homo sapiens, 48 h, read-out: Mean GI50 Breast
Experimental: as §1, §2

[9] = tested on: NSCL (non‐small‐cell lung cancer) subpanel; assay: NCI-60 one-dose screen, NSCL subpanel; assay type: cell-based, human; conditions: 10 µM, 48 h
Experimental: as §3, §2

[10] = tested on: NSCL (non‐small‐cell lung cancer) subpanel; assay: NCI-60 five-dose assay, NSCL subpanel; assay type: cell-based; conditions: Homo sapiens, 48 h, read-out: Mean GI50 NSCL
Experimental: as §1, §2

Ovarian subpanel [11] = assay: NCI-60 five-dose assay, ovarian subpanel; assay type: cell-based; conditions: Homo sapiens, 48 h, read-out: Mean GI50 Ovarian
Experimental: as §1, §2

[12] = tested on: L. infantum promastigotes; assay: Leishmanicidal activity against promastigotes (MTT), L. infantum; assay type: cell-based, Leishmania infantum; conditions: Leishmania infantum, 48 h, mean ± SD, read-out: L. infantum IC50
Experimental: (§4) The synthesized compounds were tested for their antileishmanial activity against promastigotes of L. major and L. infantum at four concentrations (1, 10, 50, and 100 µM) for 48 h using the 3‐(4,5‐dimethylthiazol‐2‐yl)‐2,5‐diphenyltetrazolium bromide (MTT) assay. In this evaluation, the activity was expressed in IC50 (concentration inhibiting the parasite growth by 50%). […] The CC50 was defined as the concentration of selenoesters that led to a reduction in the viability of the macrophages, such that only 50% of the cells survived when compared to the control group. This cell line, derived from the blood of a human with acute monocytic leukemia, was chosen as it has been widely reported that it resembles tissue macrophages to various extents as well as supports the infection by numerous Leishmania promastigotes. The selectivity indexes (SIs) were calculated as the ratio between toxicity on macrophages (THP‐1 cells)/antileishmanial activity. The data for standard control drugs (miltefosine and paromomycin) are included for comparison purposes.
(§5) The promastigotes of L. major (clone VI, MHOM/IL/80/Friendlin) and L. infantum (BCN‐150) were grown at 26°C under continuous shaking in M199 1× medium (Sigma, USA). This media was supplemented with 10% of heat‐inactivated fetal bovine serum (FBS) (Gibco, USA), 0.0005% (w/v) hemin, 0.1 mM adenine, 25 mM HEPES (pH 7.2), 0.0001% (w/v) biotin, and 100 UI/mL penicillin and […] streptomycin (Gibco, USA).
(§6) The antileishmanial activity of the reported selenoesters was determined using the MTT assay as previously described during the logarithmic growth phase of the tested promastigotes of L. major and L. infantum. Briefly, the Leishmania parasites were seeded into 96‐well flat‐bottom plates (3 × 10^5 parasites/100 µL) and treated with four different concentrations ranging between 1 and 100 µM of each selenoester at 26°C for 48 h. Afterwards, 20 µL of MTT (5 mg/mL in PBS) was added to each well and incubated for 4 h under the same conditions. Then, 80 µL/well of DMSO was added to dissolve the resultant formazan crystals. The absorbances were determined on a Multiskan EX photometric plate reader for microplates at 540 nm. Three independent experiments performed in triplicate were carried out for each compound, and OriginPro 8.5.1 Software was used to calculate the IC50 values by fitting the data to a dose–inhibition sigmoid curve.

hCA I = target: T3, hCA I (Homo sapiens, UniProt P00915); assay: hCA I inhibition, stopped-flow CO2 hydration assay; assay type: biochemical; conditions: stopped flow technique, mean from three assays
T3 construct: made in house
T3 sequence (P00915 whole entry): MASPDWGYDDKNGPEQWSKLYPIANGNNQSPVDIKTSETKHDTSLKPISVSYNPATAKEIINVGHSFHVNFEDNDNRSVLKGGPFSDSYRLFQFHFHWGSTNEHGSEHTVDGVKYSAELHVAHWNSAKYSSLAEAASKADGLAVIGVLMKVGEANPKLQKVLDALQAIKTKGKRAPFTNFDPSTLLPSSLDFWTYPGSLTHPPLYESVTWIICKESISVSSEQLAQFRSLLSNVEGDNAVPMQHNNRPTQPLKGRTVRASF
Experimental: as §7

CNS subpanel [13] = assay: NCI-60 one-dose screen, CNS subpanel; assay type: cell-based, human; conditions: 10 µM, 48 h
Experimental: as §3, §2

Colon subpanel [14] = assay: NCI-60 one-dose screen, colon subpanel; assay type: cell-based, human; conditions: 10 µM, 48 h
Experimental: as §3, §2

hCA IX = target: T4, hCA IX (Homo sapiens, UniProt Q16790); assay: biochemical; conditions: stopped flow technique, mean from three assays
T4 construct: made in house
Experimental: as §7

[15] = tested on: OVCAR‐5 ovarian cancer cells; assay: NCI-60 five-dose assay, OVCAR-5; assay type: cell-based, human; conditions: 48 h
Experimental: as §1, §2

L. major promastigotes [16] = assay: Leishmanicidal activity against promastigotes (MTT), L. major; assay type: cell-based, Leishmania major; conditions: Leishmania major, 48 h, mean ± SD, read-out: L. major IC50
Experimental: as §4, §5, §6

Ovarian subpanel [17] = assay: NCI-60 one-dose screen, ovarian subpanel; assay type: cell-based, human; conditions: 10 µM, 48 h
Experimental: as §3, §2

OVCAR‐5 = assay: NCI-60 one-dose screen, OVCAR-5; assay type: cell-based, human; conditions: 10 µM, 48 h
Experimental: as §3, §2

Renal subpanel [18] = assay: NCI-60 one-dose screen, renal subpanel; assay type: cell-based, human; conditions: 10 µM, 48 h
Experimental: as §3, §2

Melanoma subpanel [19] = assay: NCI-60 one-dose screen, melanoma subpanel; assay type: cell-based, human; conditions: 10 µM, 48 h
Experimental: as §3, §2

Breast subpanel [20] = assay: NCI-60 one-dose screen, breast subpanel; assay type: cell-based, human; conditions: 10 µM, 48 h
Experimental: as §3, §2

Prostate subpanel [21] = assay: NCI-60 one-dose screen, prostate subpanel; assay type: cell-based, human; conditions: 10 µM, 48 h
Experimental: as §3, §2

Melanoma subpanel [22] = assay: NCI-60 five-dose assay, melanoma subpanel; assay type: cell-based; conditions: Homo sapiens, 48 h, read-out: Mean GI50 Melanoma
Experimental: as §1, §2

CNS subpanel [23] = assay: NCI-60 five-dose assay, CNS subpanel; assay type: cell-based; conditions: Homo sapiens, 48 h, read-out: Mean GI50 CNS
Experimental: as §1, §2

[24] = tested on: NCI‐60 human cancer cell lines; set-up: method as in PMID 20442306; conditions: NCI-60 panel; read-out: mean GI50 in the same panel of cell lines; cited from earlier work

## NC[C@@H]1O[C@H](O[C@H]2[C@@H](O)[C@H](O[C@@H]3[C@@H](O)[C@H](N)C[C@H](N)[C@H]3O[C@H]3O[C@H](CO)[C@@H](O)[C@H](O)[C@H]3N)O[C@@H]2CO)[C@H](N)[C@@H](O)[C@@H]1O [Paromomycin, paromomycin]
L. major promastigotes [1]
  IC50: 71 ± 3.3 µM
THP‐1 cells
  CC50: 39 ± 13.7 µM
[2]
  IC50: 18 ± 1 µM

## N#Cc1ccc(NC(=O)C[Se]C(=O)c2ccco2)cc1C(F)(F)F [Compound 4, Se‐(2‐((4‐cyano‐3‐(trifluoromethyl)phenyl)amino)‐2‐oxoethyl)furan‐2‐carboselenoate]
Leukemia subpanel [3]; read-out: Mean GI50 Leukemia
  GI50: 1.87 µM
Leukemia subpanel [3]; read-out: Mean LC50 Leukemia
  CC50: > 100 µM
Renal subpanel [4]
  GI50: 1.92 µM
Colon subpanel [5]; read-out: Mean GI50 Colon
  GI50: 1.91 µM
Colon subpanel [5]; read-out: Mean LC50 Colon
  CC50: 27.6 µM
hCA XII
  Ki: 77.1 µM
Leukemia subpanel [6]
  average growth cell value, Leukemia: 5.71%
Prostate subpanel [7]; read-out: Mean GI50 Prostate
  GI50: 1.65 µM
Prostate subpanel [7]; read-out: Mean LC50 Prostate
  CC50: 53.2 µM
hCA II
  Ki: 93.8 µM
Breast subpanel [8]
  GI50: 1.72 µM
[9]
  average growth cell value, NSCL: -37.92%
[10]
  GI50: 1.56 µM
Ovarian subpanel [11]
  GI50: 1.94 µM
[12]
  IC50: 28.6 ± 2.4 µM
hCA I
  Ki: > 100 µM
CNS subpanel [13]
  average growth cell value, CNS: -60.59%
Colon subpanel [14]
  average growth cell value, Colon: -19.82%
hCA IX
  Ki: 19 µM
[15]
  cytotoxicity against OVCAR‐5: remarkable cytotoxicity
L. major promastigotes [16]
  IC50: 26.5 ± 3.69 µM
Ovarian subpanel [17]
  average growth cell value, Ovarian: -28.29%
OVCAR‐5
  behaviour in OVCAR‐5: cytotoxic activity
Renal subpanel [18]
  average growth cell value, Renal: -40.11%
Melanoma subpanel [19]
  average growth cell value, Melanoma: -56.62%
Breast subpanel [20]
  average growth cell value, Breast: -25.05%
Prostate subpanel [21]
  average growth cell value, Prostate: -28.10%
Melanoma subpanel [22]
  GI50: 1.44 µM
CNS subpanel [23]
  GI50: 1.8 µM

## CCCCCCCCCCCCCCCCOP(=O)([O-])OCC[N+](C)(C)C [Miltefosine, miltefosine]
L. major promastigotes [1]
  IC50: 66.6 ± 11.6 µM
THP‐1 cells
  CC50: 13.3 ± 2.8 µM
[2]
  IC50: 31.9 ± 2.3 µM

## O=C1[O][Pt]2([NH][C@@H]3CCCC[C@H]3[NH]2)[O]C1=O [oxaliplatin]
[24]
  GI50: 2.8 µM

## O=c1[nH]cc(F)c(=O)[nH]1 [5‐fluorouracil]
[24]
  GI50: 18 µM

## COc1cc2ncnc(Nc3ccc(F)c(Cl)c3)c2cc1OCCCN1CCOCC1 [gefitinib]
[24]
  GI50: 3.2 µM
